These results are taken from US10745382B2 (BRISTOL-MYERS SQUIBB COMPANY, priority 2015, dated 2020).

The structures appear in SMILES notation.

The target of one experiment is T1, PD-1/PD-L1 (Homo sapiens, UniProt Q9NZQ7).
T1 construct: made in house; host or cells: HEK293T
T1 sequence (Q9NZQ7 with tags, fused parts or gaps): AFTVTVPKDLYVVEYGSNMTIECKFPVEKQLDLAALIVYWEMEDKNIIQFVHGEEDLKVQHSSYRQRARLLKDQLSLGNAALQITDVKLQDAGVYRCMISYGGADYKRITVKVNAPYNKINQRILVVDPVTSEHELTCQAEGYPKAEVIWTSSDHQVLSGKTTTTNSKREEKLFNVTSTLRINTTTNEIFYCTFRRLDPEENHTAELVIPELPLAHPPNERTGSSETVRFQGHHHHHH
The experiment in a line: PD-1/PD-L1 Homogenous Time-Resolved Fluorescence (HTRF) binding assay. The following applies: PD-L1-His 10 nM, PD-1-Ig 20 nM; numeric IC50; read-out: Range or IC50. An outline of the steps: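 dPBS + 0.1% BSA + 0.05% Tween-20 buffer; Eu-cryptate anti-Ig 1 nM final, APC anti-His 20 nM final; HTRF read. Counter-assays: PD-1-Ig/PD-L2-His 20 & 5 nM, CD80-His/PD-L1-Ig 100 & 10 nM.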
On to `Cc1c(COc2cc(OCc3cncc(C#N)c3)c(CNC(CO)(CO)CO)cc2Cl)cccc1-c1cccc(OCCCNC(CO)(CO)CO)c1C` [Example 2281, 5-((4-chloro-2-(((1,3-dihydroxy-2-(hydroxymethyl)propan-2-yl)amino)methyl)-5-((3′-(3-((1,3-dihydroxy-2-(hydroxymethyl)propan-2-yl)amino)propoxy)-2,2′-dimethyl-[1,1′-biphenyl]-3-yl)methoxy)phenoxy)methyl)nicotinonitrile], for which the IC50 (usually the concentration that inhibits the measured activity by half) is 3 nM.

Still in this experiment, the particulars now being: PD-L1-His 10 nM, PD-1-Ig 20 nM; value given as range class; read-out: Range or IC50.
Regarding `CC(=O)N[C@@H]1CCN(CCCOc2cccc(-c3cccc(COc4cc(OCc5cncc(C#N)c5)c(CN[C@@](C)(CO)C(=O)O)cc4Cl)c3C)c2C)C1` [Example 2270, (2S)-2-(4-((3′-(3-((R)-3-acetamidopyrrolidin-1-yl)propoxy)-2,2′-dimethylbiphenyl-3-yl)methoxy)-5-chloro-2-((5-cyanopyridin-3-yl)methoxy)benzylamino)-3-hydroxy-2-methylpropanoic Acid], the IC50 lay in the range of 0.21 to 10 nM.

As for `Cc1c(COc2cc(OCc3cncc(C#N)c3)c(CN(C)C[C@H](O)CO)cc2Cl)cccc1-c1cccc(OCCCN(C)C[C@H](O)CO)c1C` [Example 2271, 5-((4-chloro-2-((((S)-2,3-dihydroxypropyl)(methyl)amino)methyl)-5-((3′-(3-(((S)-2,3-dihydroxypropyl)(methyl)amino)propoxy)-2,2′-dimethylbiphenyl-3-yl)methoxy)phenoxy)methyl)nicotinonitrile], the IC50 lay in the range of 0.21 to 10 nM.

Consider `Cc1c(COc2cc(OCc3cncc(C#N)c3)c(CN[C@@](C)(CO)C(=O)O)cc2Cl)cccc1-c1cccc(OCCCN2CCCCC2)c1C` [Example 2272, (S)-2-((5-chloro-2-((5-cyanopyridin-3-yl)methoxy)-4-((2,2′-dimethyl-3′-(3-(piperidin-1-yl)propoxy)-[1,1′-biphenyl]-3-yl)methoxy)benzyl)amino)-3-hydroxy-2-methylpropanoic Acid], for which the IC50 lay within 0.21 to 10 nM.

Consider `Cc1c(COc2cc(OCc3cncc(C#N)c3)c(CN[C@@](C)(CO)C(=O)O)cc2Cl)cccc1-c1cccc(OCCCN2CCOCC2)c1C` [Example 2273, (S)-2-((5-chloro-2-((5-cyanopyridin-3-yl)methoxy)-4-((2,2′-dimethyl-3′-(3-morpholinopropoxy)-[1,1′-biphenyl]-3-yl)methoxy)benzyl)amino)-3-hydroxy-2-methylpropanoic Acid], for which the IC50 lay within 0.21 to 10 nM.

Turning to `Cc1c(COc2cc(OCc3cncc(C#N)c3)c(CN[C@@](C)(CO)C(=O)O)cc2Cl)cccc1-c1cccc(OCCCN2CCC(NC(=O)C(F)(F)F)C2)c1C` (stereo partly drawn) [Example 2274, (2S)-2-((5-chloro-2-((5-cyanopyridin-3-yl)methoxy)-4-((2,2′-dimethyl-3′-(3-(3-(2,2,2-trifluoroacetamido)pyrrolidin-1-yl)propoxy)-[1,1′-biphenyl]-3-yl)methoxy)benzyl)amino)-3-hydroxy-2-methylpropanoic Acid], the IC50 is 0.21 to 10 nM.

In the case of `Cc1c(COc2cc(OCc3cncc(C#N)c3)c(CN[C@@](C)(CO)C(=O)O)cc2Cl)cccc1-c1cccc(OCCCN2CCC(CO)CC2)c1C` [Example 2275, (S)-2-((5-chloro-2-((5-cyanopyridin-3-yl)methoxy)-4-((3′-(3-(4-(hydroxymethyl)piperidin-1-yl)propoxy)-2,2′-dimethyl-[1,1′-biphenyl]-3-yl)methoxy)benzyl)amino)-3-hydroxy-2-methylpropanoic Acid], the IC50 is 0.21 to 10 nM.

Turning to `CC(=O)N[C@@H]1CCN(CCCOc2cccc(-c3cccc(COc4cc(OCc5cncc(C#N)c5)c(CO)cc4Cl)c3C)c2C)C1` [Example 2276, N-((3R)-1-(3-(3′-((2-chloro-5-((5-cyanopyridin-3-yl)methoxy)-4-(hydroxymethyl)phenoxy)methyl)-2,2′-dimethylbiphenyl-3-yloxy)propyl)pyrrolidin-3-yl)acetamide], the IC50 lay in the range of 0.21 to 10 nM.

Regarding `CO[C@@H]1CCN(CCCOc2cccc(-c3cccc(COc4cc(OCc5cncc(C#N)c5)c(CO)cc4Cl)c3C)c2C)C1` [Example 2277, 5-((4-chloro-2-(hydroxymethyl)-5-((3′-(3-((R)-3-methoxypyrrolidin-1-yl)propoxy)-2,2′-dimethylbiphenyl-3-yl)methoxy)phenoxy)methyl)nicotinonitrile], the IC50 was 0.21 to 10 nM.

As to `CCC(CO)(CO)NCCCOc1cccc(-c2cccc(COc3cc(OCc4cncc(C#N)c4)c(CNC(CC)(CO)CO)cc3Cl)c2C)c1C` [Example 2278, 5-((4-chloro-2-(((1-hydroxy-2-(hydroxymethyl)butan-2-yl)amino)methyl)-5-((3′-(3-((1-hydroxy-2-(hydroxymethyl)butan-2-yl)amino)propoxy)-2,2′-dimethyl-[1,1′-biphenyl]-3-yl)methoxy)phenoxy)methyl)nicotinonitrile], the half-inhibitory concentration (IC50) was 0.21 to 10 nM.

Turning to `CCC(CO)(CO)NCc1cc(Cl)c(OCc2cccc(-c3cccc(OCCCNC[C@H](O)CO)c3C)c2C)cc1OCc1cncc(C#N)c1` [Example 2279, (S)-5-((4-chloro-5-((3′-(3-((2,3-dihydroxypropyl)amino)propoxy)-2,2′-dimethyl-[1,1′-biphenyl]-3-yl)methoxy)-2-(((1-hydroxy-2-(hydroxymethyl)butan-2-yl)amino)methyl)phenoxy)methyl)nicotinonitrile], the IC50 was in the range of 0.21 to 10 nM.

With `CCC(CO)(CO)NCc1cc(Cl)c(OCc2cccc(-c3cccc(OCCCN4CC[C@@H](O)C4)c3C)c2C)cc1OCc1cncc(C#N)c1` [Example 2280, (R)-5-((4-chloro-2-(((1-hydroxy-2-(hydroxymethyl)butan-2-yl)amino)methyl)-5-((3′-(3-(3-hydroxypyrrolidin-1-yl)propoxy)-2,2′-dimethyl-[1,1′-biphenyl]-3-yl)methoxy)phenoxy)methyl)nicotinonitrile], the 50% inhibitory concentration (IC50) lay within 0.21 to 10 nM.

Regarding `Cc1c(COc2cc(OCc3cncc(C#N)c3)c(CNC(CO)(CO)CO)cc2Cl)cccc1-c1cccc(OCCCNC[C@H](O)CO)c1C` [Example 2282, (S)-5-((4-chloro-2-(((1,3-dihydroxy-2-(hydroxymethyl)propan-2-yl)amino)methyl)-5-((3′-(3-((2,3-dihydroxypropyl)amino)propoxy)-2,2′-dimethyl-[1,1′-biphenyl]-3-yl)methoxy)phenoxy)methyl)nicotinonitrile], the IC50 is 0.21 to 10 nM.

Turning to `CCC(CO)(CO)NCc1cc(Cl)c(OCc2cccc(-c3cccc(OCCCN4CCCC(CO)C4)c3C)c2C)cc1OCc1cncc(C#N)c1` (stereo not drawn) [Example 2283, 5-((4-chloro-2-(((1-hydroxy-2-(hydroxymethyl)butan-2-yl)amino)methyl)-5-((3′-(3-(3-(hydroxymethyl)piperidin-1-yl)propoxy)-2,2′-dimethyl-[1,1′-biphenyl]-3-yl)methoxy)phenoxy)methyl)nicotinonitrile], the IC50 lay in the range of 0.21 to 10 nM.

In the case of `Cc1c(COc2cc(OCc3cncc(C#N)c3)c(CNC(CO)(CO)CO)cc2Cl)cccc1-c1cccc(OCCCN2CCCC(CO)C2)c1C` (stereo not drawn) [Example 2284, 5-((4-chloro-2-(((1,3-dihydroxy-2-(hydroxymethyl)propan-2-yl)amino)methyl)-5-((3′-(3-(3-(hydroxymethyl)piperidin-1-yl)propoxy)-2,2′-dimethyl-[1,1′-biphenyl]-3-yl)methoxy)phenoxy)methyl)nicotinonitrile], the IC50 fell in the range of 0.21 to 10 nM.
